{"source": "patent US20240082194A1", "about": "“PREVENTIVE OR THERAPEUTIC AGENT FOR INFLAMMATORY DISORDERS AND/OR PAIN DISORDERS” (Kyowa Pharma Chemical Co., Ltd., priority 2021, published 2024)", "test_system": "adjuvant arthritis model rats", "test": "Rat adjuvant arthritis model: left hind limb (non-sensitized limb) volume", "assay_type": "in vivo, rat (male LEW rats)", "details": "for Left hind limb volume, Mean: group mean n=5; for Left hind limb volume: individual animals", "method": "Required amounts of GSSSG and indomethacin were weighed with an electronic balance, each ground well with a mortar, added to a solvent (0.5% methyl cellulose (MC) suspension), and suspended. The administration solution of GSSSG alone was prepared to have a concentration of 21.2 mg/mL (20 mg/mL on an anhydrous basis), and the administration solution of indomethacin alone was prepared to have a concentration of 0.06 mg/mL or 0.6 mg/mL. A combined administration solution was prepared by mixing a suspension prepared with GSSSG at 42.4 mg/mL (40 mg/mL on an anhydrous basis) with 0.12 mg/mL and 1.2 mg/mL indomethacin suspensions in equal amounts. The administration solution was prepared for 2 weeks at a time and stored under refrigeration and light shielding conditions until administration.\nAn appropriate amount of killed Mycobacterium tuberculosis (M. Tuberculosis H37Ra; BD) was ground in a mortar, and liquid paraffin was added thereto to prepare an adjuvant to 5 mg/mL. As experimental animals, 6-week-old male LEW rats were used. General condition observation and weight measurement were carried out upon arrival, and the presence or absence of abnormalities was confirmed.\nThe acclimation period was set to 7 days, and the general condition was observed once a day. On the last day of the acclimation period, left hind limb volume and body weight were measured to confirm that there were no abnormalities in body weight and general condition, and the animals were then used for a test.\nOn the last day of the acclimation period, the rats were sensitized with 50 μL of the prepared adjuvant under isoflurane inhalation anesthesia under the skin of the right hind limb plantar. In grouping, the rats were assigned to 6 groups (n=5) to ensure equal left hind limb volume and body weight.\nThe administration solution of indomethacin alone, the administration solution of GSSSG alone, and the combined administration solution were forcibly orally administered at a volume of 5 mL/kg for 14 days from the day of grouping. The dose was calculated based on the most recent body weight. The volume of the left hind limb (non-sensitized limb) was measured using a rat hind limb plantar edema volume measurement device (TK-101P; Natsume Seisakusho Co., Ltd.) on the last day of the acclimation period, the day of grouping, and twice a week after the day of grouping. The measurement was performed 5 times per rat per day, and an average value of 3 times excluding the highest and lowest values was taken as the volume.", "key": {"[1]": {"details": "Indomethacin 0.3 mg/kg/day oral, day 0 (before sensitization)"}, "[2]": {"details": "Indomethacin 0.3 mg/kg/day oral, day 9 (day of grouping, start of dosing)"}, "[3]": {"details": "Indomethacin 0.3 mg/kg/day oral, day 13"}, "[4]": {"details": "Indomethacin 0.3 mg/kg/day oral, day 16"}, "[5]": {"details": "Indomethacin 0.3 mg/kg/day oral, day 20"}, "[6]": {"details": "Indomethacin 0.3 mg/kg/day oral, day 23"}, "[7]": {"details": "Indomethacin 3 mg/kg/day oral, day 0 (before sensitization)"}, "[8]": {"details": "Indomethacin 3 mg/kg/day oral, day 9 (day of grouping, start of dosing)"}, "[9]": {"details": "Indomethacin 3 mg/kg/day oral, day 13"}, "[10]": {"details": "Indomethacin 3 mg/kg/day oral, day 16"}, "[11]": {"details": "Indomethacin 3 mg/kg/day oral, day 20"}, "[12]": {"details": "Indomethacin 3 mg/kg/day oral, day 23"}, "[13]": {"details": "GSSSG 100 mg/kg/day oral, day 0 (before sensitization)"}, "[14]": {"details": "GSSSG 100 mg/kg/day oral, day 9 (day of grouping, start of dosing)"}, "[15]": {"details": "GSSSG 100 mg/kg/day oral, day 13"}, "[16]": {"details": "GSSSG 100 mg/kg/day oral, day 16"}, "[17]": {"details": "GSSSG 100 mg/kg/day oral, day 20"}, "[18]": {"details": "GSSSG 100 mg/kg/day oral, day 23"}}, "note": "“And” between values parts separate entries of the source, which are not always exact repeats. Equal values may be shown once."}
{"smiles": "COc1ccc2c(c1)c(CC(=O)O)c(C)n2C(=O)c1ccc(Cl)cc1", "note": "[Indomethacin, indomethacin]", "values": [{"measurement": "Left hind limb volume, Mean", "setting": "[1]", "value": 1.32, "unit": "mL"}, {"measurement": "Left hind limb volume", "setting": "[1]", "value": "1.39 mL and 1.24 mL and 1.37 mL and 1.30 mL and 1.29 mL"}, {"measurement": "Left hind limb volume, Mean", "setting": "[2]", "value": 1.63, "unit": "mL"}, {"measurement": "Left hind limb volume", "setting": "[2]", "value": "1.47 mL and 1.41 mL and 1.74 mL (2×) and 1.79 mL"}, {"measurement": "Left hind limb volume, Mean", "setting": "[3]", "value": 1.90, "unit": "mL"}, {"measurement": "Left hind limb volume", "setting": "[3]", "value": "1.78 mL and 1.59 mL and 2.17 mL and 1.98 mL and 1.99 mL"}, {"measurement": "Left hind limb volume, Mean", "setting": "[4]", "value": 1.88, "unit": "mL"}, {"measurement": "Left hind limb volume", "setting": "[4]", "value": "1.74 mL and 1.62 mL and 2.19 mL and 1.95 mL and 1.91 mL"}, {"measurement": "Left hind limb volume, Mean", "setting": "[5]", "value": 1.92, "unit": "mL"}, {"measurement": "Left hind limb volume", "setting": "[5]", "value": "1.71 mL and 1.60 mL and 2.09 mL and 2.06 mL and 2.12 mL"}, {"measurement": "Left hind limb volume, Mean", "setting": "[6]", "value": 1.94, "unit": "mL"}, {"measurement": "Left hind limb volume", "setting": "[6]", "value": "1.69 mL and 1.65 mL and 1.98 mL and 2.20 mL and 2.18 mL"}, {"measurement": "Left hind limb volume, Mean", "setting": "[7]", "value": 1.33, "unit": "mL"}, {"measurement": "Left hind limb volume", "setting": "[7]", "value": "1.17 mL and 1.40 mL and 1.37 mL and 1.32 mL and 1.38 mL"}, {"measurement": "Left hind limb volume, Mean", "setting": "[8]", "value": 1.52, "unit": "mL"}, {"measurement": "Left hind limb volume", "setting": "[8]", "value": "1.36 mL and 1.49 mL (2×) and 1.71 mL and 1.55 mL"}, {"measurement": "Left hind limb volume, Mean", "setting": "[9]", "value": 1.63, "unit": "mL"}, {"measurement": "Left hind limb volume", "setting": "[9]", "value": "1.39 mL and 1.68 mL (2×) and 1.69 mL (2×)"}, {"measurement": "Left hind limb volume, Mean", "setting": "[10]", "value": 1.55, "unit": "mL"}, {"measurement": "Left hind limb volume", "setting": "[10]", "value": "1.36 mL and 1.60 mL (2×) and 1.58 mL and 1.62 mL"}, {"measurement": "Left hind limb volume, Mean", "setting": "[11]", "value": 1.52, "unit": "mL"}, {"measurement": "Left hind limb volume", "setting": "[11]", "value": "1.32 mL and 1.60 mL and 1.61 mL and 1.51 mL and 1.59 mL"}, {"measurement": "Left hind limb volume, Mean", "setting": "[12]", "value": 1.54, "unit": "mL"}, {"measurement": "Left hind limb volume", "setting": "[12]", "value": "1.33 mL and 1.56 mL and 1.61 mL and 1.58 mL and 1.62 mL"}]}
{"smiles": "N[C@@H](CCC(=O)N[C@@H](CSSSC[C@H](NC(=O)CC[C@H](N)C(=O)O)C(=O)NCC(=O)O)C(=O)NCC(=O)O)C(=O)O", "note": "[GSSSG, glutathione trisulfide]", "values": [{"measurement": "Left hind limb volume, Mean", "setting": "[13]", "value": 1.31, "unit": "mL"}, {"measurement": "Left hind limb volume", "setting": "[13]", "value": "1.21 mL and 1.39 mL (2×) and 1.29 mL (2×)"}, {"measurement": "Left hind limb volume, Mean", "setting": "[14]", "value": 1.49, "unit": "mL"}, {"measurement": "Left hind limb volume", "setting": "[14]", "value": "1.29 mL and 1.52 mL and 1.58 mL (2×) and 1.51 mL"}, {"measurement": "Left hind limb volume, Mean", "setting": "[15]", "value": 1.99, "unit": "mL"}, {"measurement": "Left hind limb volume", "setting": "[15]", "value": "1.45 mL and 2.35 mL and 2.08 mL and 2.06 mL and 2.00 mL"}, {"measurement": "Left hind limb volume, Mean", "setting": "[16]", "value": 2.26, "unit": "mL"}, {"measurement": "Left hind limb volume", "setting": "[16]", "value": "1.41 mL and 2.64 mL (2×) and 2.28 mL and 2.35 mL"}, {"measurement": "Left hind limb volume, Mean", "setting": "[17]", "value": 2.39, "unit": "mL"}, {"measurement": "Left hind limb volume", "setting": "[17]", "value": "1.72 mL and 2.82 mL and 2.58 mL and 2.53 mL and 2.31 mL"}, {"measurement": "Left hind limb volume, Mean", "setting": "[18]", "value": 2.54, "unit": "mL"}, {"measurement": "Left hind limb volume", "setting": "[18]", "value": "1.67 mL and 3.22 mL and 2.77 mL and 2.69 mL and 2.34 mL"}, {"measurement": "anti-inflammatory effect", "setting": "GSSSG alone administration group (100 mg/kg oral, 14 days)", "value": "no anti-inflammatory effect was observed"}]}
